Source: patent EP1028725B1, “USE OF VASOPRESSIN ANTAGONISTS FOR TREATING DISTURBANCES OR ILLNESSES OF THE INNER EAR” (Otogene Aktiengesellschaft, priority 1997, dated 2004)

Test system: Menschlicher Saccus endolymphaticus
Assay: Light-microscopic autoradiography of 125I-arginine-vasopressin binding on frozen tissue sections
Set-up: species or system menschlich
Details: overnight at 4 °C; unspecific binding checked with 10 µM unlabelled Arginin-Vasopressin
Experimental: Menschlicher Saccus endolymphaticus wurde von sechs Autopsien und zwei operierten Patienten mit Einwilligung der Verwandten bzw. der Patienten erhalten. Gefrorene Schnitte (20 µm) wurden auf einem Kryostaten bei -16 °C geschnitten, auf Gelatine-beschichtete Plättchen aufgebracht und über Nacht unter Vakuum bei 4 °C gelagert. […] Die radiomarkierten Schnitte wurden mit NTB-2 Nuklearemulsion (Eastman Kodak) beschichtet und für die lichtmikroskopische Autoradiographie präpariert. Die beschichteten Plättchen wurden in der Dunkelheit bei 4 °C für drei bis acht Tage gelagert. Nach Entwickeln und Fixieren wurden die Plättchen mit Haematoxylin/Eosin gefärbt.

## ^125I-Arginin-Vasopressin [radioaktivem Vasopressin]
  Bindung im Epithel des endolymphatischen Sacks: spezifische Bindung
